Experimental data reported in ChEMBL document CHEMBL5543142, “Discovery of YFJ-36: Design, Synthesis, and Antibacterial Activities of Catechol-Conjugated β-Lactams against Gram-Negative Bacteria” (J Med Chem, 2024).

Columns and labels:
[1] = AUC (0 to infinity) in ICR mouse at 20 mg/kg,iv administration measured upto 6 hrs by LC-MS/MS analysis; format: ADME, organism-based; conditions: in vivo
[2] = tested on: Acinetobacter baumannii; experiment: Antibacterial activity against OXA-23 producing multidrug-resistant Acinetobacter baumannii clinical isolate 15-4 assessed as inhibition of bacterial growth incubated for 18 to 20 hrs by two fold serial dilution assay; format: functional; conditions: time 18-20 hrs
[3] = tested on: Escherichia coli; experiment: Antibacterial activity against ESBL-producing multidrug-resistant Escherichia coli clinical isolate 14-4 assessed as inhibition of bacterial growth incubated for 18 to 20 hrs by two fold serial dilution assay; format: functional; conditions: time 18-20 hrs
[4] = Half life in ICR mouse at 20 mg/kg,iv administration measured upto 6 hrs by LC-MS/MS analysis; format: ADME, organism-based; conditions: in vivo
[5] = tested on: Acinetobacter baumannii; experiment: Antibacterial activity against OXA-23 producing multidrug-resistant Acinetobacter baumannii clinical isolate 15-2 assessed as inhibition of bacterial growth incubated for 18 to 20 hrs by two fold serial dilution assay; format: functional; conditions: time 18-20 hrs
[6] = tested on: Pseudomonas aeruginosa; experiment: Antibacterial activity against IMP-4 producing multidrug-resistant Pseudomonas aeruginosa clinical isolate 17-13 assessed as inhibition of bacterial growth incubated for 18 to 20 hrs by two fold serial dilution assay; format: functional; conditions: time 18-20 hrs
[7] = tested on: Klebsiella pneumoniae; experiment: Antibacterial activity against KPC-2 producing multidrug-resistant Klebsiella pneumoniae clinical isolate 15-3 assessed as inhibition of bacterial growth incubated for 18 to 20 hrs by two fold serial dilution assay; format: functional; conditions: time 18-20 hrs
[8] = tested on: Escherichia coli; experiment: Antibacterial activity against ESBL-producing multidrug-resistant Escherichia coli clinical isolate 14-1 assessed as inhibition of bacterial growth incubated for 18 to 20 hrs by two fold serial dilution assay; format: functional; conditions: time 18-20 hrs
[9] = tested on: Acinetobacter baumannii; experiment: Antibacterial activity against OXA-23 producing multidrug-resistant Acinetobacter baumannii clinical isolate 15-1 assessed as inhibition of bacterial growth incubated for 18 to 20 hrs by two fold serial dilution assay; format: functional; conditions: time 18-20 hrs
[10] = tested on: Acinetobacter baumannii; experiment: Antibacterial activity against OXA-23 producing multidrug-resistant Acinetobacter baumannii clinical isolate 15-3 assessed as inhibition of bacterial growth incubated for 18 to 20 hrs by two fold serial dilution assay; format: functional; conditions: time 18-20 hrs
[11] = Volume of distribution at steady state in ICR mouse at 20 mg/kg,iv administration measured upto 6 hrs by LC-MS/MS analysis; format: ADME, organism-based; conditions: in vivo, read-out: Vdss
[12] = tested on: Klebsiella pneumoniae; experiment: Antibacterial activity against KPC-2 producing multidrug-resistant Klebsiella pneumoniae clinical isolate 15-2 assessed as inhibition of bacterial growth incubated for 18 to 20 hrs by two fold serial dilution assay; format: functional; conditions: time 18-20 hrs
[13] = tested on: Escherichia coli; experiment: Antibacterial activity against Escherichia coli ATCC35218 assessed as inhibition of bacterial growth incubated for 18 to 20 hrs by two fold serial dilution assay; format: functional; conditions: time 18-20 hrs
[14] = tested on: Pseudomonas aeruginosa; experiment: Antibacterial activity against IMP-4 producing multidrug-resistant Pseudomonas aeruginosa clinical isolate 19-17 assessed as inhibition of bacterial growth incubated for 18 to 20 hrs by two fold serial dilution assay; format: functional; conditions: time 18-20 hrs
[15] = tested on: Escherichia coli; experiment: Antibacterial activity against ESBL-producing multidrug-resistant Escherichia coli clinical isolate 14-2 assessed as inhibition of bacterial growth incubated for 18 to 20 hrs by two fold serial dilution assay; format: functional; conditions: time 18-20 hrs
[16] = tested on: Acinetobacter baumannii; experiment: Antibacterial activity against OXA-23 producing multidrug-resistant Acinetobacter baumannii clinical isolate 15-5 assessed as inhibition of bacterial growth incubated for 18 to 20 hrs by two fold serial dilution assay; format: functional; conditions: time 18-20 hrs
[17] = MRT in ICR mouse at 20 mg/kg,iv administration measured upto 6 hrs by LC-MS/MS analysis; format: ADME, organism-based; conditions: in vivo
[18] = tested on: Klebsiella pneumoniae; experiment: Antibacterial activity against KPC-2 producing multidrug-resistant Klebsiella pneumoniae clinical isolate 15-5 assessed as inhibition of bacterial growth incubated for 18 to 20 hrs by two fold serial dilution assay; format: functional; conditions: time 18-20 hrs
[19] = Clearance in ICR mouse at 20 mg/kg,iv administration measured upto 6 hrs by LC-MS/MS analysis; format: ADME, organism-based; conditions: in vivo
[20] = tested on: Klebsiella pneumoniae; experiment: Antibacterial activity against KPC-2 producing multidrug-resistant Klebsiella pneumoniae clinical isolate 15-1 assessed as inhibition of bacterial growth incubated for 18 to 20 hrs by two fold serial dilution assay; format: functional; conditions: time 18-20 hrs
[21] = tested on: Pseudomonas aeruginosa; experiment: Antibacterial activity against IMP-4 producing multidrug-resistant Pseudomonas aeruginosa clinical isolate 15-4 assessed as inhibition of bacterial growth incubated for 18 to 20 hrs by two fold serial dilution assay; format: functional; conditions: time 18-20 hrs
[22] = tested on: Pseudomonas aeruginosa; experiment: Antibacterial activity against IMP-4 producing multidrug-resistant Pseudomonas aeruginosa clinical isolate 15-1 assessed as inhibition of bacterial growth incubated for 18 to 20 hrs by two fold serial dilution assay; format: functional; conditions: time 18-20 hrs
[23] = tested on: Pseudomonas aeruginosa; experiment: Antibacterial activity against Pseudomonas aeruginosa ATCC 27853 assessed as inhibition of bacterial growth incubated for 18 to 20 hrs by two fold serial dilution assay; format: functional; conditions: time 18-20 hrs
[24] = tested on: Pseudomonas aeruginosa; experiment: Antibacterial activity against IMP-4 producing multidrug-resistant Pseudomonas aeruginosa clinical isolate 15-5 assessed as inhibition of bacterial growth incubated for 18 to 20 hrs by two fold serial dilution assay; format: functional; conditions: time 18-20 hrs
[25] = tested on: Pseudomonas aeruginosa; experiment: Antibacterial activity against IMP-4 producing multidrug-resistant Pseudomonas aeruginosa clinical isolate 19-1 assessed as inhibition of bacterial growth incubated for 18 to 20 hrs by two fold serial dilution assay; format: functional; conditions: time 18-20 hrs
[26] = tested on: Acinetobacter baumannii; experiment: Antibacterial activity against OXA-23 producing multidrug-resistant Acinetobacter baumannii clinical isolate 17-3 assessed as inhibition of bacterial growth incubated for 18 to 20 hrs by two fold serial dilution assay; format: functional; conditions: time 18-20 hrs
[27] = tested on: Acinetobacter baumannii; experiment: Antibacterial activity against OXA-23 producing multidrug-resistant Acinetobacter baumannii clinical isolate 17-2 assessed as inhibition of bacterial growth incubated for 18 to 20 hrs by two fold serial dilution assay; format: functional; conditions: time 18-20 hrs
[28] = tested on: Pseudomonas aeruginosa; experiment: Antibacterial activity against IMP-4 producing multidrug-resistant Pseudomonas aeruginosa clinical isolate 19-5 assessed as inhibition of bacterial growth incubated for 18 to 20 hrs by two fold serial dilution assay; format: functional; conditions: time 18-20 hrs

CC1CCC(C(O/N=C(\C(=O)N[C@@H]2C(=O)N3C(C(=O)O)=C(CSCCNC(=O)c4ccc(O)c(O)c4Cl)CS[C@H]23)c2csc(N)n2)C(=O)O)CC1.O=C(O)C(F)(F)F (some centres not stated)
AUC(0-inf) [1]: 5760 ng·h/mL | MIC [2]: 4 µg/mL | MIC [3]: 0.125 µg/mL | half-life [4]: 139 min | MIC [5]: 8 µg/mL | MIC [6]: 0.5 µg/mL | MIC [7]: 1 µg/mL | MIC [8]: 0.5 µg/mL | MIC [9]: 4 µg/mL | MIC [10]: 4 µg/mL | Vd [11]: 2.37 L/kg | MIC [12]: 0.5 µg/mL | MIC [13]: ≤ 0.03 µg/mL | MIC [14]: 0.5 µg/mL | MIC [15]: 0.5 µg/mL | MIC [16]: 8 µg/mL | MRT [17]: 35.4 min | MIC [18]: 0.5 µg/mL | clearance [19]: 60.3 mL/min/kg | MIC [20]: 1 µg/mL

Cc1ccc(S(=O)(=O)O)cc1.Nc1nc(/C(=N/OC(C(=O)O)C2CCC(F)(F)CC2)C(=O)N[C@@H]2C(=O)N3C(C(=O)O)=C(CSCCNC(=O)c4ccc(O)c(O)c4Cl)CS[C@H]23)cs1 (some centres not stated)
AUC(0-inf) [1]: 11600 ng·h/mL | half-life [4]: 45 min | Vd [11]: 0.402 L/kg | MRT [17]: 12 min | clearance [19]: 31.3 mL/min/kg

CC(C)C(O/N=C(\C(=O)N[C@@H]1C(=O)N2C(C(=O)O)=C(CSCCNC(=O)c3ccc(O)c(O)c3Cl)CS[C@H]12)c1csc(N)n1)C(=O)O.O=C(O)C(F)(F)F (some centres not stated)
MIC [2]: 4 µg/mL | MIC [3]: 0.5 µg/mL | MIC [21]: 4 µg/mL | MIC [5]: 4 µg/mL | MIC [22]: 2 µg/mL | MIC [7]: 0.5 µg/mL | MIC [8]: 0.06 µg/mL | MIC [9]: 8 µg/mL | MIC [10]: 4 µg/mL | MIC [12]: 0.5 µg/mL | MIC [23]: 8 µg/mL | MIC [15]: 2 µg/mL | MIC [16]: 4 µg/mL | MIC [18]: 0.25 µg/mL | MIC [24]: 4 µg/mL | MIC [20]: 0.5 µg/mL

Nc1nc(/C(=N/OC(C(=O)O)C2CCCCC2)C(=O)N[C@@H]2C(=O)N3C(C(=O)O)=C(CSCCNC(=O)c4ccc(O)c(O)c4Cl)CS[C@H]23)c(Br)s1.O=C(O)C(F)(F)F (some centres not stated)
MIC [2]: 2 µg/mL | MIC [3]: 0.25 µg/mL | MIC [25]: 4 µg/mL | MIC [5]: 1 µg/mL | MIC [26]: 1 µg/mL | MIC [6]: 0.25 µg/mL | MIC [7]: 8 µg/mL | MIC [27]: 1 µg/mL | MIC [8]: 1 µg/mL | MIC [9]: 2 µg/mL | MIC [10]: 2 µg/mL | MIC [12]: 2 µg/mL | MIC [13]: 0.06 µg/mL | MIC [14]: 0.5 µg/mL | MIC [28]: 1 µg/mL | MIC [15]: 0.5 µg/mL | MIC [16]: 1 µg/mL | MIC [18]: 1 µg/mL | MIC [20]: 2 µg/mL

CC(C)(O/N=C(\C(=O)N[C@@H]1C(=O)N2C(C(=O)O)=C(CSCCOCCNC(=O)c3ccc(O)c(O)c3Cl)CS[C@H]12)c1csc(N)n1)C(=O)O.O=C(O)C(F)(F)F
MIC [2]: 64 µg/mL | MIC [3]: 32 µg/mL | MIC [21]: 1 µg/mL | MIC [5]: 32 µg/mL | MIC [22]: 1 µg/mL | MIC [7]: 8 µg/mL | MIC [8]: 0.25 µg/mL | MIC [9]: 32 µg/mL | MIC [10]: 32 µg/mL | MIC [12]: 4 µg/mL | MIC [23]: 4 µg/mL | MIC [15]: 2 µg/mL | MIC [16]: 32 µg/mL | MIC [18]: 4 µg/mL | MIC [24]: 2 µg/mL | MIC [20]: 8 µg/mL

Nc1nc(/C(=N/OC2(C(=O)O)CCC2)C(=O)N[C@@H]2C(=O)N3C(C(=O)O)=C(CSCCNC(=O)c4ccc(O)c(O)c4Cl)CS[C@H]23)cs1.O=C(O)C(F)(F)F
MIC [2]: 32 µg/mL | MIC [3]: 32 µg/mL | MIC [21]: 1 µg/mL | MIC [5]: 32 µg/mL | MIC [22]: 1 µg/mL | MIC [7]: 8 µg/mL | MIC [8]: 0.25 µg/mL | MIC [9]: 32 µg/mL | MIC [10]: 32 µg/mL | MIC [12]: 4 µg/mL | MIC [23]: 2 µg/mL | MIC [15]: 2 µg/mL | MIC [16]: 32 µg/mL | MIC [18]: 4 µg/mL | MIC [24]: 2 µg/mL | MIC [20]: 2 µg/mL
